Results from ChEMBL document CHEMBL2434826, “Multifunctional tacrine-flavonoid hybrids with cholinergic, β-amyloid-reducing, and metal chelating properties for the treatment of Alzheimer's disease” (Eur J Med Chem, 2013).
Activity calls are given as the source filed them. The calls are words filed in the database; no cut-off is given here.

Columns and labels:
[1] = molecular target: T1, Amyloid-beta precursor protein (Homo sapiens, UniProt P05067)
Description: Inhibition of amyloid beta (1 to 42) (unknown origin) self-induced aggregation after 48 hrs by thioflavin T fluorescence assay

[2] = tested on: Radical scavenging activity; assay: Antioxidant activity assessed as DPPH radical scavenging activity at 2 mM relative to control; assay type: functional
[3] = molecular target: T1, Amyloid-beta precursor protein; assay: Inhibition of amyloid beta (1 to 42) (unknown origin) self-induced aggregation at 20 uM after 48 hrs by thioflavin T fluorescence assay relative to control
[4] = molecular target: Cholinesterase (Equus caballus) (UniProt P81908); assay: Competitive inhibition of equine serum BuChE using […] as substrate at 22.5 to 90 nM by Lineweaver-Burk plot analysis
[5] = molecular target: Acetylcholinesterase (Electrophorus electricus) (UniProt O42275); settings: 7.7 to 30.8 nM
Acetylcholinesterase = Acetylcholinesterase (Electrophorus electricus, UniProt O42275)
Description: Inhibition of electric eel AChE using acetylthiocholine iodide as substrate preincubated for 6 mins followed by substrate addition by Ellmans method

Cholinesterase = Cholinesterase (Equus caballus, UniProt P81908)
Description: Inhibition of equine serum BuChE using S-butyrylcholinesterase iodide as substrate preincubated for 6 mins followed by substrate addition by Ellmans method

[6] = molecular target: Cholinesterase (Equus caballus) (UniProt P81908); assay: Potency index, ratio of tacrine IC50 to compound IC50 for equine serum BuChE
[7] = molecular target: Cholinesterase (Equus caballus) (UniProt P81908); assay: Potency index, ratio of galanthamine IC50 to compound IC50 for equine serum BuChE
[8] = Metal chelating activity of the compound assessed as Fe2+-complex formation in methanol at 25 uM by UV-vis spectrophotometric analysis; assay type: functional
[9] = Cytotoxicity against human SH-SY5Y cells assessed as survival at 5 uM after 24 hrs by MTT assay relative to control; assay type: cell-based; settings: read-out: Survival
[10] = Cytotoxicity against human SH-SY5Y cells assessed as survival at 10 uM after 24 hrs by MTT assay relative to control; assay type: cell-based; settings: read-out: Survival
[11] = Metal chelating activity of the compound assessed as Cu2+-complex formation in methanol at 25 uM by UV-vis spectrophotometric analysis; assay type: functional
[12] = Cytotoxicity against human SH-SY5Y cells assessed as survival at 50 uM after 24 hrs by MTT assay relative to control; assay type: cell-based; settings: read-out: Survival
[13] = Cytotoxicity against human SH-SY5Y cells assessed as survival at 1 uM after 24 hrs by MTT assay relative to control; assay type: cell-based; settings: read-out: Survival
[14] = Cytotoxicity against human SH-SY5Y cells assessed as survival at 25 uM after 24 hrs by MTT assay relative to control; assay type: cell-based; settings: read-out: Survival
[15] = molecular target: Acetylcholinesterase (Electrophorus electricus) (UniProt O42275); assay: Potency index, ratio of tacrine IC50 to compound IC50 for electric eel AChE
[16] = molecular target: Acetylcholinesterase (Electrophorus electricus) (UniProt O42275); assay: Potency index, ratio of galanthamine IC50 to compound IC50 for electric eel AChE

T1 sequence (P05067 whole entry): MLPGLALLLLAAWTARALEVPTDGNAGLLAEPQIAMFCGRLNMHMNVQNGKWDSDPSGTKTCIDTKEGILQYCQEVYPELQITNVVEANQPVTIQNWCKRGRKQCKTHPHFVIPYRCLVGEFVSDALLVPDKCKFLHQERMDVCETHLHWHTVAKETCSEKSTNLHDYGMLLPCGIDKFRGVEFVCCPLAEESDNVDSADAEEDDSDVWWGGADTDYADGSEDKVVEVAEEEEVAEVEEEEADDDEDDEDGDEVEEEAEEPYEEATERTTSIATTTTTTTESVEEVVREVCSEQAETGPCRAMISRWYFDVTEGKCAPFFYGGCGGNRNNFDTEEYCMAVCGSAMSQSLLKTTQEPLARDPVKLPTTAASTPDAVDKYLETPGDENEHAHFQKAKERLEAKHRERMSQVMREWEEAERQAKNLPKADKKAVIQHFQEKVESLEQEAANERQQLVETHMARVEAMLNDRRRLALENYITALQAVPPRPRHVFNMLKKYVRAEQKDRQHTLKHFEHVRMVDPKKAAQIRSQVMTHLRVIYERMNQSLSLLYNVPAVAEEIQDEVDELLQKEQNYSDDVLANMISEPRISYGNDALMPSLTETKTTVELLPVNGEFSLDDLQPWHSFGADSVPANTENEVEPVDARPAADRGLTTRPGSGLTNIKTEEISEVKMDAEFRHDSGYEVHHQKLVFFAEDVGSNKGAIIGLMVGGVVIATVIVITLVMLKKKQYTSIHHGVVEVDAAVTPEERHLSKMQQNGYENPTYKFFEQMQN
Chain of Acetylcholinesterase (Electrophorus electricus) (O42275 24-633 limits assumed): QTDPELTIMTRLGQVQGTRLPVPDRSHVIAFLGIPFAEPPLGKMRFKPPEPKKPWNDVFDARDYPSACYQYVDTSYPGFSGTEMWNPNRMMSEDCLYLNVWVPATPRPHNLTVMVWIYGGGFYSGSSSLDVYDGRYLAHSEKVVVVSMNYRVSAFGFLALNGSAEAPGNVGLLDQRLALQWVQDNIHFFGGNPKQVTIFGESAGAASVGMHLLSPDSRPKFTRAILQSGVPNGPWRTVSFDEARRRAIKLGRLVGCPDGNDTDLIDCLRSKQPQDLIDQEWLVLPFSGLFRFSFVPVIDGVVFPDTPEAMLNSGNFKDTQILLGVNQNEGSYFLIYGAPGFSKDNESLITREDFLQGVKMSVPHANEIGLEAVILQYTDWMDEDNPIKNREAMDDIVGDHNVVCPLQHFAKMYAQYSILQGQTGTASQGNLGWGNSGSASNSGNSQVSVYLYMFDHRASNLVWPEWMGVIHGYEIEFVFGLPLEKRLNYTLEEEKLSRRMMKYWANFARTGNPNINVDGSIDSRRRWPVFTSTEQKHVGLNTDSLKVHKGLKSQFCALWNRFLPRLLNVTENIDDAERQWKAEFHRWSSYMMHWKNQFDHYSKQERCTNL
Chain of Acetylcholinesterase (O42275 whole entry): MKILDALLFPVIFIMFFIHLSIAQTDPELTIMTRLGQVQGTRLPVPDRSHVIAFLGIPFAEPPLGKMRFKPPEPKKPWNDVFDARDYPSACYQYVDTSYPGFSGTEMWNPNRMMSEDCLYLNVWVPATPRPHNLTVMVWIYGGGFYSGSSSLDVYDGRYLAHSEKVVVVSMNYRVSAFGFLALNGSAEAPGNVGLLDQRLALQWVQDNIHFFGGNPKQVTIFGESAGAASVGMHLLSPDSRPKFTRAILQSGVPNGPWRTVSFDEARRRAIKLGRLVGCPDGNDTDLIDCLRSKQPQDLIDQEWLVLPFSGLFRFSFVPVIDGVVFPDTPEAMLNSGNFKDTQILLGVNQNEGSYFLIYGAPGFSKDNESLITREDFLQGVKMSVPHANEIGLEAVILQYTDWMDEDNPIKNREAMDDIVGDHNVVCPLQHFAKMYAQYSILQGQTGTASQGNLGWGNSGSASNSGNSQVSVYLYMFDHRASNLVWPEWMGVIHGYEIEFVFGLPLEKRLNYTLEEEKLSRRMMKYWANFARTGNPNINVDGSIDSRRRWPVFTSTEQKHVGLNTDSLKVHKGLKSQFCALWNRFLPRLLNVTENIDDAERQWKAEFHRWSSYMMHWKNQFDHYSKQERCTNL
Chain of Cholinesterase (P81908 whole entry): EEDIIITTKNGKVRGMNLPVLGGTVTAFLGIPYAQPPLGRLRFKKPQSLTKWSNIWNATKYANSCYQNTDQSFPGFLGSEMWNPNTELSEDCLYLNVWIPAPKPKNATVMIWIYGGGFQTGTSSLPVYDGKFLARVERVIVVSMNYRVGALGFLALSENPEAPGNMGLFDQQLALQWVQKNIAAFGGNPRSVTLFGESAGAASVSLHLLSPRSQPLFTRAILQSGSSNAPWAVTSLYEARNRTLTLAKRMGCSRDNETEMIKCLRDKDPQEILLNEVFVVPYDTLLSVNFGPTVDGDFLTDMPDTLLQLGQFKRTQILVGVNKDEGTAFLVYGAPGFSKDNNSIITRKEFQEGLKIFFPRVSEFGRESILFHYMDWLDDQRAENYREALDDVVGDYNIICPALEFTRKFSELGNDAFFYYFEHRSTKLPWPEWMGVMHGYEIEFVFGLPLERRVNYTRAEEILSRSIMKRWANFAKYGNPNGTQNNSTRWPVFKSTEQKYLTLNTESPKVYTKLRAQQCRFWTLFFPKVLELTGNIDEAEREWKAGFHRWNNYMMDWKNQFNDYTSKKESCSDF
Chain of Cholinesterase (Equus caballus) (P81908 whole entry): as above

SMILES | IC50 [1] [nM] | Activity [2] [%] | inhibition [3] [%] | IC50 (Acetylcholinesterase) [nM] | IC50 (Cholinesterase) [nM] | also measured
O=c1ccoc2cc(OCCCN3CCN(CCCNc4c5c(nc6ccccc46)CCCC5)CC3)cc(O)c12 | 4800 | < 36 | 85.3 | 15.4 | 45 | inhibition [4]: Active; inhibition [5]: Active
O=c1cc(-c2ccccc2)oc2cc(OCCCN3CCN(CCCNc4c5c(nc6ccccc46)CCCC5)CC3)ccc12 | 14900 | < 36 | 58 | 153 | 208 | –
CN(C)c1ccc(-c2cc(=O)c3ccc(OCCCN4CCN(CCCNc5c6c(nc7ccccc57)CCCC6)CC4)cc3o2)cc1 | – | < 36 | 12.2 | 230 | 845 | –
O=c1cc(-c2ccccc2)oc2cc(OCCN3CCN(CCCNc4c5c(nc6ccccc46)CCCC5)CC3)ccc12 | 9800 | < 36 | 70 | 416 | 266 | –
COc1cc(OCCCN2CCN(CCCNc3c4c(nc5ccccc35)CCCC4)CC2)cc2oc(-c3ccccc3)cc(=O)c12 | 9600 | < 36 | 68.7 | 57.7 | 360 | –
O=c1ccoc2cc(OCCCN3CCN(CCCNc4c5c(nc6ccccc46)CCCC5)CC3)ccc12 | 11500 | < 36 | 67.4 | 10.3 | 25.8 | Ratio IC50 [6]: 2; Ratio IC50 [7]: 508
O=c1cc(-c2ccccc2)oc2cc(OCCCN3CCN(CCCNc4c5c(nc6ccccc46)CCCC5)CC3)cc(O)c12 | 6500 | < 36 | 79.1 | 133 | 558 | Activity [8]: Active; viability at 24 h, 5 µM [9]: 96.5%; viability at 24 h, 10 µM [10]: 94.4%; Activity [11]: Active; viability at 24 h, 50 µM [12]: 90.1%; viability at 24 h, 1 µM [13]: 97.3%; viability at 24 h, 25 µM [14]: 92.7%
Cc1ccc(-c2cc(=O)c3ccc(OCCCN4CCN(CCCNc5c6c(nc7ccccc57)CCCC6)CC4)cc3o2)cc1 | – | < 36 | 13.4 | 316 | 573 | –
O=c1cc(-c2ccc(Cl)cc2)oc2cc(OCCCN3CCN(CCCNc4c5c(nc6ccccc46)CCCC5)CC3)ccc12 | – | < 36 | 48.9 | 40.1 | 994 | –
O=c1cc(-c2ccccc2)oc2cc(OCCCCCN3CCN(CCCNc4c5c(nc6ccccc46)CCCC5)CC3)ccc12 | 13200 | < 36 | 62.5 | 594 | 423 | –
O=c1cc(-c2ccccc2)oc2cc(OCCCN3CCN(CCNc4c5c(nc6ccccc46)CCCC5)CC3)ccc12 | 13700 | < 36 | 59.1 | 624 | 311 | –
O=c1cc(-c2ccccc2)oc2cc(OCCN3CCN(CCNc4c5c(nc6ccccc46)CCCC5)CC3)ccc12 | 16800 | < 36 | 54.1 | 481 | 520 | –
Nc1ccc(-c2cc(=O)c3ccc(OCCCN4CCN(CCCNc5c6c(nc7ccccc57)CCCC6)CC4)cc3o2)cc1 | – | < 36 | 9 | 336 | 685 | –
COc1cc(OCCCN2CCN(CCCNc3c4c(nc5ccccc35)CCCC4)CC2)cc2occc(=O)c12 | 12600 | < 36 | 62 | 8.4 | 35 | Ratio IC50 [15]: 31; Ratio IC50 [16]: 318
O=c1cc(-c2ccccc2)oc2cc(O)ccc12 [7-HYDROXYFLAVONE] | – | – | 27.2 | 85000 | > 100000 | –
O=c1cc(-c2ccccc2)oc2cc(OCCCCCCN3CCN(CCCNc4c5c(nc6ccccc46)CCCC5)CC3)ccc12 | 13500 | < 36 | 63 | 848 | 414 | –
O=c1cc(-c2ccccc2)oc2cc(OCCCCCCN3CCN(CCNc4c5c(nc6ccccc46)CCCC5)CC3)ccc12 | 14200 | < 36 | 63.3 | 717 | 289 | –
O=c1cc(-c2ccccc2)oc2cc(OCCCCCN3CCN(CCNc4c5c(nc6ccccc46)CCCC5)CC3)ccc12 | 12800 | < 36 | 65.4 | 568 | 258 | –
O=c1cc(-c2ccc([N+](=O)[O-])cc2)oc2cc(OCCCN3CCN(CCCNc4c5c(nc6ccccc46)CCCC5)CC3)ccc12 | 14100 | < 36 | 61.1 | 75 | 460 | –
O=c1cc(-c2ccccc2)oc2cc(OCCCCN3CCN(CCCNc4c5c(nc6ccccc46)CCCC5)CC3)ccc12 | 17300 | < 36 | 53.4 | 547 | 317 | –
O=c1cc(-c2ccccc2)oc2cc(OCCCCN3CCN(CCNc4c5c(nc6ccccc46)CCCC5)CC3)ccc12 | 16400 | < 36 | 53.7 | 268 | 197 | –
COc1ccc(-c2cc(=O)c3ccc(OCCCN4CCN(CCCNc5c6c(nc7ccccc57)CCCC6)CC4)cc3o2)cc1 | – | < 36 | 10.9 | 417 | 655 | –
